Measurements: ChEMBL document CHEMBL1155949, “Blockade of glucocorticoid excess at the tissue level: inhibitors of 11beta-hydroxysteroid dehydrogenase type 1 as a therapy for type 2 diabetes” (J Med Chem, 2008)
pKi: −log10 of the molar value.

Assays:
[1] = Inhibition of cynomolgus monkey 11beta-HSD1 mediated conversion of prednisone to prednisolone; parameters: species or system Macaca fascicularis
[2] = test system: Corticosteroid 11-beta-dehydrogenase isozyme 2 (Homo sapiens); assay: Inhibition of 11beta-HSD2 in human SW620 cells at 10 uM; conditions: SW-620

pKi [1]	inhibition [2]	SMILES
8.64	–	N#Cc1ccc(-c2ccc(S(=O)(=O)Nc3cccc(N)n3)cc2)cc1
–	12%	O=C(Nc1cccc(C(=O)N2CCC[C@H]3CCCC[C@@H]32)c1)c1ccccc1
